These results are taken from patent publication US9187406B2 (The Research Foundation of State University of New York, priority 2009, dated 2015).

Structures are written as SMILES. pIC50: −log10 of the molar value. Entries after “also recorded” stand apart in the source; their conditions may differ. Like-named read-outs stand apart in the source and are kept apart here.

Series [1] concerns the target chromatographically-purified MMP-13 (Collagenase-3) (Homo sapiens (Human), UniProt P45452). The experiment in a line: MMP-13 inhibition in vitro, octapeptide/HPLC. The following applies: for Ratio = IC50 test compound/IC50 standard, MMP-13: standard 1,10-phenanthroline. It is filed as biochemical.
The target of series [2] is chromatographically-purified MMP-2 (Homo sapiens (Human), UniProt P08253). Nature of the series: MMP-2 inhibition in vitro, octapeptide/HPLC. The following applies: for Ratio = IC50 test compound/IC50 standard, MMP-2: standard 1,10-phenanthroline. The class given is biochemical.
For series [3], the target named is MMP-9 (human leukocyte gelatinase) (Homo sapiens (Human), UniProt P14780). The experiment in a line: MMP-9 inhibition in vitro, octapeptide/HPLC. It is filed as biochemical. The text has this:
In contrast all three chemically-modified curcumins at 100 μm final concentration inhibited gelatinase activity by 68-100% (FIG. 6 and Table 6).

A further series has as its target purified human PMN MMP-8 (Homo sapiens (Human), UniProt P22894). The experiment in a line: MMP-8 inhibition, synthetic octapeptide substrate, tripeptide product by HPLC. It is filed as biochemical.
Series [4] concerns neonatal rat ventricular myocytes. Nature of the series: Hydrogen peroxide induced LDH release. Particulars: 10 μM, H2O2 100 μM. It is filed as cell-based. The procedure: Test compounds and concentrations (MMP inhibitors, MMPi): • 1. GM-6001: 10 μM • 2. ONO-4817: 10 μM • 3.
Neonatal rat ventricular myocytes, serum starved for 24 h, were treated with the inhibitors 1 h prior to the addition of 100 μM of hydrogen peroxide (Sigma). LDH release in the conditioned media was quantified using CytoTox-ONE Homogeneous Membrane Integrity Assay reagent (Promega) at the indicated time points.

For series [5], the system named is human monocytes. Nature of the series: Cytotoxicity in human monocytes (MTS). It is filed as cell-based. The method, then:
(§1) Briefly, human peripheral blood monocytes (HMs) were isolated from a leukocyte concentrate by density gradient centrifugation (Lymphoprep) and the isolated HMs cultured (2 h, 37° C.) to remove non-adherent cells. The adherent HMs were cultured for 18 h (1×10^6 cells/well, 24-well plates)±endotoxin (LPS)±different compounds dissolved in DMSO (the final concentration of DMSO in the RPMI serum-free culture media with Pen./Strep. antibiotics was no greater than 0.5%). After incubation, the proinflammatory cytokines, TNFα, IL-1β, MCP-1 and IL-6 were measured in the conditioned media by ELISA and cytotoxicity was assessed by measuring the absorbance (490 nm) of formazan produced by reduction of MTS. The HMs alone ±0.1-0.5% DMSO produced minimal levels of these pro-inflammatory cytokines. However, addition of 100 ng/ml or 10 μg/ml of LPS both dramatically stimulated cytokine production.

For another series, the system named is TNF-α. Nature of the series: TNF-α production by LPS-stimulated monocytes (ELISA). It is filed as cell-based, human. The procedure:
as §1

Series [6] relates to human monocytes. Nature of the series: Cytotoxicity in human monocytes (MTS). It is filed as cell-based. The source holds these as a separate data set.
The next series has as its target MMP-2 (Mus musculus (Mouse), UniProt P33434). The following applies: 15 μM; cited from earlier work.
Series [7] in a line: Extractability/recovery from human serum by HPLC. The method, then:
Detection of compounds & extractability/recovery from human serum (for future use to determine in vivo pharmacokinetics) was achieved using HPLC. The HPLC detection method is briefly described herein. 50 μl of buffer or human serum containing 166.67 μM, 16.67 μM and 1.67 μM of the compounds were incubated with 100 μl pre-cooled (−10° C.) extraction solvent containing CAN-MeOH-0.5M oxalic acid at a ratio of 60:30:10. The mixture was vortexed and centrifuged at 10,000 rpm for 10 min. The supernatant was then aliquoted and injected into an HPLC for analysis. Stock solutions of the compounds were made 100× in DMSO, then further diluted with buffer or serum.

Series [8] is described as follows: Solubility in aqueous solutions. The class given is physicochemical.

MMP-9 (human leukocyte gelatinase), sequence (P14780 94-707): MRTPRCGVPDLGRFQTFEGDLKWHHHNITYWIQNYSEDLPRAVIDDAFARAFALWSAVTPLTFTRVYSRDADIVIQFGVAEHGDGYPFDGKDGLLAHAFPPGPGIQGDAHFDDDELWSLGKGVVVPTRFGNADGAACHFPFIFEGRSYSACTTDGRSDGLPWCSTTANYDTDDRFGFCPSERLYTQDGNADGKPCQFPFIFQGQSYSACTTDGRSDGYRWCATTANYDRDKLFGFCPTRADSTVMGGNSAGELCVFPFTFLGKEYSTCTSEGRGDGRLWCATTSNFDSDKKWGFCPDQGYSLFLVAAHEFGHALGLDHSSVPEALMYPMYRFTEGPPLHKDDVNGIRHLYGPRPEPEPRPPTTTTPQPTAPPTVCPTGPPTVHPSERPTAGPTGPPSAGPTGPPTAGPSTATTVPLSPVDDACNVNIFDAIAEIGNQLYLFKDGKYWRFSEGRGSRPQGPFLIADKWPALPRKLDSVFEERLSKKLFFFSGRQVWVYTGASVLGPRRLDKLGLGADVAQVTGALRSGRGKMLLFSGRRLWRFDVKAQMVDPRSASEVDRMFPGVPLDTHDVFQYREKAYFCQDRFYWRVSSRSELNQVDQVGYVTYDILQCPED
chromatographically-purified MMP-2, sequence (P08253 110-660): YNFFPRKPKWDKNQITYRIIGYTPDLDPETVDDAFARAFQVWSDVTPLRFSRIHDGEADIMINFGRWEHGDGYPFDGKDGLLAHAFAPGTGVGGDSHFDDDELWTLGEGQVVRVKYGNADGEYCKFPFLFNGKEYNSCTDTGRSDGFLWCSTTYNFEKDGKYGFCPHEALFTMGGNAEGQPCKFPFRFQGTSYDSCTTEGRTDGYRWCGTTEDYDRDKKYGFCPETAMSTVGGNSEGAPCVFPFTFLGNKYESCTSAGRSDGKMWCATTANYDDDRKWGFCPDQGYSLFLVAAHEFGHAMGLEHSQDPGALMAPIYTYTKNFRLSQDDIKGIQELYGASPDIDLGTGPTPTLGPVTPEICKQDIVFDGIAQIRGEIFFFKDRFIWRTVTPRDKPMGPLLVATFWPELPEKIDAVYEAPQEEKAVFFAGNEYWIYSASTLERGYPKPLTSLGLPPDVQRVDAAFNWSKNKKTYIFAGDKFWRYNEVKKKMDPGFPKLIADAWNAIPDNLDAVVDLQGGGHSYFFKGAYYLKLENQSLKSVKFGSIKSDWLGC
purified human PMN MMP-8, sequence (P22894 101-467): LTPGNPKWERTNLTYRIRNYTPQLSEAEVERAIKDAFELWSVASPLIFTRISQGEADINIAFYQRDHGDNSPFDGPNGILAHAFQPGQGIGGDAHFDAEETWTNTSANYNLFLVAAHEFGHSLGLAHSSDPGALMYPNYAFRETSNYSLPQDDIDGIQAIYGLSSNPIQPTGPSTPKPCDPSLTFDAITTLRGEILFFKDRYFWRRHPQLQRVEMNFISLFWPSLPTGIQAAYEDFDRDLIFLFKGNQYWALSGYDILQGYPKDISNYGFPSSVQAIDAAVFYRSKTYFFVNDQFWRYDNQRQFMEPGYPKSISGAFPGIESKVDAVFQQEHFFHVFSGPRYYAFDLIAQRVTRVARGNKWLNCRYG

`c1cnc2c(c1)ccc1cccnc12` [1,10-O-phenanthroline, reference compound]: the pIC50 in series [1] is 5.40; in series [2] (read-out: IC50 MMP-2) it was 4.15; at purified human PMN MMP-8 (Table 1 experiments, read-out: IC50 against purified hMMP-8) it was 4.46 to 5.00. In series [1], the “Ratio = IC50 test compound/IC50 standard, MMP-13” value is on record as 1.0. The “Ratio = IC50 test compound/IC50 standard, MMP-2” value in series [2] was 1.0. This compound displayed a half-maximal inhibitory concentration (IC50) in [3] of 9 µM. Moreover, on purified human PMN MMP-8 (hMMP-8), the “Ratio of each IC50 to IC50 of 1,10-O-phenanthroline” value is 1 = 35 μM 1 = 10 μM.
`CCOCOC[C@H](C[C@H](C)C(=O)NO)NC(=O)c1ccc(Oc2ccccc2)cc1` [ONO-4817, reference compound]: in series [4], the “Effect on LDH release” value is given as “did not affect LDH release”.
For `COc1cc(/C=C/C(=O)CC(=O)/C=C/c2ccc(N(C)C)cc2)ccc1O` [Compound 4], the pIC50 in series [1] is 3.60; in [2] (read-out: IC50 MMP-2) it was under 3.60. The “Ratio = IC50 test compound/IC50 standard, MMP-13” value in series [1] stood at 62.5. In addition, the “Ratio = IC50 test compound/IC50 standard, MMP-2” value in series [2] is listed as over 3.6. This compound registered an IC50 in series [3] of 17 µM.
For `COC(=O)C(C(=O)/C=C/c1ccccc1)C(=O)/C=C/c1ccccc1` [Compound 2], the “IC50 against purified hMMP-8” value at purified human PMN MMP-8 (Table 1 experiments) was “did not show a dose response; also recorded: No dose response”.
On to `COc1cc(/C=C/C(=O)C(C(=O)/C=C/c2ccc(O)c(OC)c2)C(=O)Nc2ccccc2)ccc1O` [Compound 6, 1,7-Bis(4-hydroxy-3-methoxyphenyl)-4-N-phenylaminocarbonylhepta-1E,6E-dien-3,5-dione], for which the pIC50 in [2] (read-out: IC50 MMP-2) is 4.07.
For the compound `COc1cc(/C=C/C(=O)CC(=O)/C=C/c2ccc(O)c(OC)c2)ccc1O` [curcumin], the “Cytotoxicity Monocytes @ 18 h incubation” value is given as 10 uM- 0% in the series on human monocytes [5] (10 uM), 20 uM- 20% with human monocytes [5] (20 uM) and 50 uM- 77% in the series with human monocytes [5] (50 uM). Besides, the “Cytotoxicity in human monocyte culture” value in the series with human monocytes [5] (50 and 100 μM) was “significant cytotoxicity”. For the same compound, the “Decrease of TNFα production by endotoxin-stimulated human monocytes” value with TNF-α (10 and 20 μM) was “no effect”; with TNF-α (50 and 100 μM) it was 80-90%. This compound also showed a pIC50 in series [2] of 4.07. The results for the “Cytotoxicity Monocytes @ 5 h incubation” value in the series on human monocytes [6] (10 uM), in the series on human monocytes [6] (20 uM) and in the series with human monocytes [6] (50 uM) were 10 uM- 0%, 20 uM- 20% and 50 uM- 50%, respectively. The “Effect on MMP-2 activity” value at MMP-2 is reported as “significant inhibitory effect”. The “Recovery from human serum” value in [7] (HPLC after solvent extraction) is 83-94%. Besides, the recovery in [7] (human, human serum) lay within 83 to 94%. Further, the “Solubility in aqueous solutions (comparative)” value in [8] was “insoluble”. In series [3], this compound came in with an IC50 of 29 µM. The “Maximum Inhibition At 100 μM compound, MMP-9” value in series [3] (100 μM) came to 58%.
Consider `O=C(/C=C/c1ccc(O)cc1)C(C(=O)/C=C/c1ccc(O)cc1)C(=O)Nc1ccccc1` [Compound 7, 1,7-Bis(4-hydroxyphenyl)-4-N-phenylaminocarbonylhepta-1E,6E-dien-3,5-dione], for which the values for the pIC50 in series [1] and in series [2] (read-out: IC50 MMP-2) were over 6.00 and 3.90, respectively. Further, the “Ratio = IC50 test compound/IC50 standard, MMP-13” value in [1] is under 0.3. Also, in series [2], the “Ratio = IC50 test compound/IC50 standard, MMP-2” value worked out at 1.8.
With `CNC(=O)[C@H](Cc1c[nH]c2ccccc12)NC(=O)[C@@H](CC(=O)NO)CC(C)C` [GM-6001, reference compound], the “Effect on LDH release” value in series [4] is “did not affect LDH release”.
As for `COC(=O)C(C(=O)/C=C/c1ccc(O)cc1)C(=O)/C=C/c1ccc(O)cc1` [Compound 3, 1,7-Bis(4-hydroxyphenyl)-4-methoxycarbonylhepta-1E,6E-dien-3,5-dione], the negative logarithm of the IC50 (pIC50) in series [1] was 5.10; in [2] (read-out: IC50 MMP-2) it was 4.15; on purified human PMN MMP-8 (Example 7 experiment, 1 mM Ca++, 37° C., read-out: IC50, human neutrophil collagenase (MMP-8)), at least 5.30. Besides, the “Ratio = IC50 test compound/IC50 standard, MMP-13” value in series [1] is on record as 2.0. Moreover, in [2], the “Ratio = IC50 test compound/IC50 standard, MMP-2” value was 1.0. Besides, in series [8], the “Solubility in aqueous solutions (comparative)” value was “more soluble in aqueous solutions than compound 1”. Also, the IC50 in series [3] turned out to be 6 µM.
For the compound `CN(C)c1ccc(/C=C/C(=O)C(C(=O)/C=C/c2ccc(N(C)C)cc2)C(=O)Nc2ccccc2)cc1` [Compound 8, 1,7-Bis(4-dimethylaminophenyl)-4-N-phenylaminocarbonylhepta-1E,6E-dien-3,5-dione], in series [1], the pIC50 was 4.35 and the “Ratio = IC50 test compound/IC50 standard, MMP-13” value is on record as 11.3. Moreover, the “IC50 MMP-2 (μM)” value in series [2] was “Unmeasurable*”.
